Test results: patent publication US8552018B2, “Substituted tricyclic compounds as protein kinase inhibitors” (Arizona Board of Regents on behalf of the University of …, priority 2003, dated 2013)

What was measured:
GIST882 cell line [1] = assay: GIST882 cell growth assay (Cell-Titer-Glo); format: cell-based; conditions: Homo sapiens; GIST882, 96 hours
Description: (§1) Briefly, cells are seeded into 96-well, tissue-culture treated, opaque white plates (Thermo Electron, Vantaa, Finland), at between 5000 and 7500 cells per well, depending on the speed of cell proliferation, in 100 μl of appropriate growth medium (determined by the ATCC). Cells are then exposed to the appropriate concentration of drug or an equal amount of DMSO (drug diluent) and allowed to grow in its presence for 96 hours. Following this, 100 μl of Cell-Titer-Glo reagent (Promega, Inc., Madison, Wis.) is added to each well. Plates are then shaken for 2 minutes at room temperature to allow for cell lysis and incubated for 10 minutes to stabilize the luminescent signal. Similar to the Kinase-Glo assay reagent, this reagent contains both luciferase enzyme and its substrate luciferin. Luciferase, activated by ATP in the cell lysate, catalyzes the conversion of luciferin to oxyluciferin, a reaction which produces light. The amount of light produced is proportionate to the amount of ATP in the cell lysate, which is itself proportional to cell number and gives an index of cellular proliferation.
as §1, with “Various compounds of the invention, including (IV-1-3) (also referred to as HPK16), (III-1-3) (also referred to as HPK56), (III-1-4) (also referred to as HPK57), (III-1-5) (also referred to as HPK59), and (II-2-7) (also referred to as HPK61) were tested for activity against GIST tumor cells using the GIST882 cell line. Briefly,” for “Briefly,”

GIST882 cell line [2] = assay: Cancer cell cytotoxicity assay (sulforhodamine B); format: cell-based; conditions: for IC50: Homo sapiens, 96 h, GIST882, 4 days, read-out: IC50 c-kit GIST882
Description: To validate the hypothesis that the designed c-kit/PDGFR tyrosine kinase inhibitors mediate GIST882 cell killing and PDGFR-mediated cell killing of pancreatic cancer cell lines (CFPAC-1, PANC-1 and MIA PaCa-2), an in vitro cytotoxicity assay was performed. The GIST882 cell line used in this study has a c-kit gain-of-function mutation (K642E). […] First the cells were cultured. GIST882 cells were provided by Dr. Jonathan A. Fletcher (Dana-Farber Cancer Institute, Boston, Mass.). PANC-1 and MIAPaCa-2 cells were provided by Dr. Daniel Von Hoff (Arizona Cancer Center, Tucson, Ariz.). […] All the cell lines were incubated in a humidified incubator at 37° C. with 5% CO2 atmosphere.
(§2) After incubation for 4 days at 37° C. in a humidified incubator, the cells were fixed with 10% Trichloroacetic acid solution (Catalog No. 490-10, Sigma). Subsequently, they were labeled with 0.04% Sulforhodamine B (S9012, Sigma) in 1% acetic acid. After multiple washes to remove excess dye, 100 μl of 50 mM Tris solution was added to each well in order to dissolve the dye. The absorbance of each well was read on a plate reader (Wallac Vector^2, PerkinElmer) at the wavelength of 570 nm. Data were expressed as the percentage of survival of control calculated from the absorbance corrected for background absorbance. The surviving percent of cells was determined by dividing the mean absorbance values of the […] by the mean absorbance values of the control and multiplying by 100.

metastatic GISTs = conditions: 400 mg or 600 mg per day, patients assessed at 1-3 months; cited from earlier work
[3] = test system: c-Met autophosphorylation in NIH 3T3 cells; assay: Immunoblot for phospho-Met; format: cell-based; conditions: NIH 3T3, 4 hours, agent alone
Description: (§3) MP-470 (Compound III-1-3) has inhibitory effects on a number of receptor tyrosine kinases. In order to evaluate these effects at the cellular level, immunoblot analysis was performed on lysates from cells treated with MP470, with or without the addition of the EGFR inhibitor Tarceva®. Lysates were assayed for general tyrosine kinase activity, as well as the specific phosphorylation of c-Met and Akt. Briefly, NIH 3T3 cells were pretreated with drugs as indicated for 4 hours, then treated with pervanadate for a further 30 minutes. Immunoblot detection was carried out with antibodies for phosphotyrosine, phospho-Met and phospho-Akt (S473), as well as total c-Met and Akt. Beta-actin was used as a loading control.

[4] = test system: Akt phosphorylation in NIH 3T3 cells; assay: Immunoblot for phospho-Akt (S473); format: cell-based; conditions: NIH 3T3, 4 hours, agent alone
Description: as §3, with “In” for “MP-470 (Compound III-1-3) has inhibitory effects on a number of receptor tyrosine kinases. In”

[5] = test system: Akt phosphorylation in LNCaP prostate carcinoma cells; assay: Immunoblot for phospho-Akt (S473); format: cell-based; conditions: 48 hours, agent alone
Description: LNCaP prostate carcinoma cells were treated with MP-470, in combinations with Tarceva® and Gleevec®, for 48 hours. Following incubation, cells were lysed and total protein subjected to immunoblot analysis for total Akt and phospho-Akt (S473).

PANC-1 cells = assay: Cancer cell cytotoxicity assay (sulforhodamine B); format: cell-based; conditions: Homo sapiens, 96 h; PANC-1, 4 days; read-out: IC50 PDGFR PANC-1
Description: (§4) To validate the hypothesis that the designed c-kit/PDGFR tyrosine kinase inhibitors mediate GIST882 cell killing and PDGFR-mediated cell killing of pancreatic cancer cell lines (CFPAC-1, PANC-1 and MIA PaCa-2), an in vitro cytotoxicity assay was performed. The GIST882 cell line used in this study has a c-kit gain-of-function mutation (K642E). The assay utilized the Cell Titer 965 Non-Radioactive Cell Proliferation Assay (Promega Corp., Madison, Wis.). First the cells were cultured. GIST882 cells were provided by Dr. Jonathan A. Fletcher (Dana-Farber Cancer Institute, Boston, Mass.). PANC-1 and MIAPaCa-2 cells were provided by Dr. Daniel Von Hoff (Arizona Cancer Center, Tucson, Ariz.). GIST882 cells were cultured in RPMI 1640 medium (Cat #21870-076, Invitrogen Corporation) supplemented with 300 mg/L L-glutamine, 100 unit/ml penicillin, 100 μg/ml streptomycin and 15% fetal bovine serum. PANC-1 and MIAPaCa-2 cells were maintained in RPMI 1640 medium (cat #10-040, Mediatech, Inc.) supplemented with 100 unit/ml penicillin, 100 μg/ml streptomycin and 10% fetal bovine serum. All the cell lines were incubated in a humidified incubator at 37° C. with 5% CO2 atmosphere.
as §2, with “Cells were plated at a density of 2000 to 10000 cells per well, depending on their growth rate, in 0.1 mL medium on day 0 in 96-well Falcon microtiter plates (#3072, Becton-Dickinson Labware, Lincoln Park, N.J.). On day 1, 10 μL of serial dilutions of the individual compounds were added to the plates in replicates of 4. After incubation” for “After incubation”

MIAPaCa-2 cells = assay: Cancer cell cytotoxicity assay (sulforhodamine B); format: cell-based; conditions: Homo sapiens, MIA PaCa-2, 96 h; MIAPaCa-2, 4 days; read-out: IC50 PDGFR MIAPaCa
Description: as §4
as §2, with “Cells were plated at a density of 2000 to 10000 cells per well, depending on their growth rate, in 0.1 mL medium on day 0 in 96-well Falcon microtiter plates (#3072, Becton-Dickinson Labware, Lincoln Park, N.J.). On day 1, 10 μL of serial dilutions of the individual compounds were added to the plates in replicates of 4. After incubation” for “After incubation”

aurora-2 kinase = target: T1, aurora-2 kinase (Homo sapiens, UniProt O14965); assay: Aurora-2 kinase inhibition assay (Kinase-Glo); format: biochemical; conditions: aurora-2 kinase, FIG. 11
T1 construct: purchased Imgenex, San Diego, Calif; host or cells: sf9 cells
T1 sequence (O14965 1-403): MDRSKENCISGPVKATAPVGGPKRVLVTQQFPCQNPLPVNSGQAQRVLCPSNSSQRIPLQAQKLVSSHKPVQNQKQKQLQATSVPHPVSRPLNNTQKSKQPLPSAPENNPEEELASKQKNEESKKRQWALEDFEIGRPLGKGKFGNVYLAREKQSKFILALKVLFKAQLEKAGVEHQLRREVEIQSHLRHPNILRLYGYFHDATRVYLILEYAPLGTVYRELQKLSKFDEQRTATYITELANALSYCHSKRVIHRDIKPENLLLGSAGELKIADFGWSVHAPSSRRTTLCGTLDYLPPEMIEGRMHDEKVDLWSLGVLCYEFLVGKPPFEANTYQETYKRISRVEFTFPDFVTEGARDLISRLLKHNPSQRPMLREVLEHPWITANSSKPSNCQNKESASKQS
Description: In this assay kinase activity is determined by quantifying the amount of ATP remaining in solution following the kinase reaction by measuring the light units (LU) produced by luciferase using a luminometer. Percent inhibition was determined for individual compounds by comparing luminometer readings of drug-treated reactions to controls containing no drug (DMSO control) and no Aurora-2 enzyme (ATP control) in the following equation: […]
In a 50 μl reaction, recombinant aurora-2 kinase produced in sf9 cells (Imgenex, San Diego, Calif.) was incubated at 30° C. for two hours with 62.5 μM Kemptide (Calbiochem, San Diego, Calif.), 3 μM ATP (Invitrogen, Carlsbad, Calif.) and kinase reaction buffer (40 mM Tris-HCl, 10 mM MgCl2 and 0.1 μg/μl bovine serum albumin (BSA)). This reaction was carried out in the presence of drug substances, which had been previously diluted to desired concentrations in DMSO. After incubation, 50 μl of Kinase-Glo® (Promega, Inc., Madison, Wis.) solution was added to each reaction mixture and allowed to equilibrate for 10 minutes at room temperature. Kinase-Glo solution contains luciferase enzyme and luciferin, which react with ATP to produce light. Kinase activity is determined by quantifying the amount of ATP remaining in solution following the kinase reaction by measuring the light units (LU) produced by luciferase using a luminometer (PerkinElmer, Boston, Mass.).

SMILES	IC50 (GIST882 cell line [1]) [µM]	IC50 (GIST882 cell line [2]) [µM]	IC50 (PANC-1 cells) [µM]	IC50 (MIAPaCa-2 cells) [µM]	also measured
O=S(=O)(Nc1ncccn1)c1ccc(NC(=S)N2CCN(c3ncnc4c3oc3ccccc34)CC2)cc1 [HPK59, 4-Benzo[4,5]furo[3,2-d]pyrimidin-4-yl-piperazine-1-carbothioic acid [4-(pyrimidin-2-ylsulfamoyl)-phenyl]-amide]	27.5	27.5	–	–	–
Cc1ccc(NC(=O)c2ccc(CN3CCN(C)CC3)cc2)cc1Nc1nccc(-c2cccnc2)n1 [STI571]	–	–	–	–	cells alive at day 4 (GIST882 cell line [2]; GIST882, day 4): 25%; partial response (metastatic GISTs): 54%; progressive disease (metastatic GISTs): 12%; stable disease (metastatic GISTs): 34%
C#Cc1cccc(Nc2ncnc3cc(OCCOC)c(OCCOC)cc23)c1 [Tarceva®, reference compound]	–	–	–	–	activating autophosphorylation of c-Met [3]: Neither of these effects was observed; phosphorylation of Akt [4]: Neither of these effects was observed; phosphorylation of Akt [5]: did not appear to have an effect
O=S(=O)(Nc1ncccn1)c1ccc(NC(=S)N2CCN(c3ncnc4c3sc3ncccc34)CC2)cc1 [HPK60, 4-(9-Thia-1,5,7-triaza-fluoren-8-yl)-piperazine-1-carbothioic acid [4-(pyrimidin-2-ylsulfamoyl)-phenyl]-amide]	50	50	> 50	> 50	–
S=C(NCc1ccc2c(c1)OCO2)N1CCN(c2ncnc3c2sc2ncccc23)CC1 [HPK57, 4-(9-Thia-1,5,7-triaza-fluoren-8-yl)-piperazine-1-carbothioic acid (benzo[1,3]dioxol-5-ylmethyl)-amide]	28	28	> 50	> 50	–
COc1cc2ncnc(Nc3ncc(NC(=S)NCc4ccc5c(c4)OCO5)cn3)c2cc1OC [AKS110, 1-Benzo[1,3]dioxol-5-yl methyl-3-[2-(6,7-dimethoxy-quinazolin-4ylamino)-pyrimidin-5yl]-thiourea]	–	–	–	–	IC50 (aurora-2 kinase): 36 µM
